Data as given in patent publication US20240051946A1, “TARGETED PROTEIN DEGRADATION OF PARP14 FOR USE IN THERAPY” (Ribon Therapeutics, Inc., priority 2022, published 2024).

Target: T1, PARP14 (Homo sapiens, UniProt Q460N5)
T1 construct: engineered to contain a HiBiT tag on both alleles of the PARP14 gene; endogenous in cells; host or cells: Jurkat cells stably expressing LgBiT (Promega), with CRISPR/Cas9 knock-in of HiBiT at the PARP14 locus
Assay: HiBiT assay for the degradation of PARP14 (HiBiT tagged PARP14 in LgBiT expressing Jurkat cells)
Assay type: cell-based
Settings: Assay B, 37° C. for 2 or 24 hours, luminescence
Method: Jurkat cells stably transfected with LgBiT (Promega) were engineered to contain a HiBiT tag on both alleles of the PARP14 gene (Genbank Accession Number: NM_017554) via CRISPR/Cas9 editing. The HiBiT tag is an 11 amino acid tag created by Promega that associates with LgBiT protein to form the NanoLuc® tag on the C-terminus of PARP14. Clones were isolated and confirmed for the HiBiT tag via Sanger sequencing.
Degradation of PARP14 protein was assessed by measuring the luminescence of the HiBiT tag associating with the LgBiT protein as a proxy for the PARP14 protein. Jurkat cells were diluted to 250,000 cells per mL and then added to assay plate (Corning 3574) using a Multidrop (Thermo Fisher) to add 20 μL per well of the 384 well plate, resulting in 5,000 cells per well. 20 nL of a dose response curve diluted in DMSO of each test compound was added to the cell plate using a Mosquito (TTP Labtech) and the plate was incubated at 37° C. for 2 or 24 hours. Assay plate was brought to room temperature then 5 μL per well of Live Cell Substrate (Promega) was added to the plate. Luminescence was measured on an Envision (Perkin Elmer).
(§1) The average DMSO was calculated from 32 wells containing 0.1% DMSO only in columns 12 and 24 of the assay plate. The % of DMSO values were calculated as described below: […]
(§2) The % of DMSO values were plotted as a function of compound concentration and the following 4-parameter fit was applied to derive the DC50 values:
(§3) where top, bottom, and Hill Coefficient are allowed to float. Y is the % of DMSO and X is the compound concentration.
DC50 data for the Example compounds is provided below in Table 2 (“+” is <0.03 μM; “++” is ≥0.03 μM).

T1 sequence (Q460N5 whole entry): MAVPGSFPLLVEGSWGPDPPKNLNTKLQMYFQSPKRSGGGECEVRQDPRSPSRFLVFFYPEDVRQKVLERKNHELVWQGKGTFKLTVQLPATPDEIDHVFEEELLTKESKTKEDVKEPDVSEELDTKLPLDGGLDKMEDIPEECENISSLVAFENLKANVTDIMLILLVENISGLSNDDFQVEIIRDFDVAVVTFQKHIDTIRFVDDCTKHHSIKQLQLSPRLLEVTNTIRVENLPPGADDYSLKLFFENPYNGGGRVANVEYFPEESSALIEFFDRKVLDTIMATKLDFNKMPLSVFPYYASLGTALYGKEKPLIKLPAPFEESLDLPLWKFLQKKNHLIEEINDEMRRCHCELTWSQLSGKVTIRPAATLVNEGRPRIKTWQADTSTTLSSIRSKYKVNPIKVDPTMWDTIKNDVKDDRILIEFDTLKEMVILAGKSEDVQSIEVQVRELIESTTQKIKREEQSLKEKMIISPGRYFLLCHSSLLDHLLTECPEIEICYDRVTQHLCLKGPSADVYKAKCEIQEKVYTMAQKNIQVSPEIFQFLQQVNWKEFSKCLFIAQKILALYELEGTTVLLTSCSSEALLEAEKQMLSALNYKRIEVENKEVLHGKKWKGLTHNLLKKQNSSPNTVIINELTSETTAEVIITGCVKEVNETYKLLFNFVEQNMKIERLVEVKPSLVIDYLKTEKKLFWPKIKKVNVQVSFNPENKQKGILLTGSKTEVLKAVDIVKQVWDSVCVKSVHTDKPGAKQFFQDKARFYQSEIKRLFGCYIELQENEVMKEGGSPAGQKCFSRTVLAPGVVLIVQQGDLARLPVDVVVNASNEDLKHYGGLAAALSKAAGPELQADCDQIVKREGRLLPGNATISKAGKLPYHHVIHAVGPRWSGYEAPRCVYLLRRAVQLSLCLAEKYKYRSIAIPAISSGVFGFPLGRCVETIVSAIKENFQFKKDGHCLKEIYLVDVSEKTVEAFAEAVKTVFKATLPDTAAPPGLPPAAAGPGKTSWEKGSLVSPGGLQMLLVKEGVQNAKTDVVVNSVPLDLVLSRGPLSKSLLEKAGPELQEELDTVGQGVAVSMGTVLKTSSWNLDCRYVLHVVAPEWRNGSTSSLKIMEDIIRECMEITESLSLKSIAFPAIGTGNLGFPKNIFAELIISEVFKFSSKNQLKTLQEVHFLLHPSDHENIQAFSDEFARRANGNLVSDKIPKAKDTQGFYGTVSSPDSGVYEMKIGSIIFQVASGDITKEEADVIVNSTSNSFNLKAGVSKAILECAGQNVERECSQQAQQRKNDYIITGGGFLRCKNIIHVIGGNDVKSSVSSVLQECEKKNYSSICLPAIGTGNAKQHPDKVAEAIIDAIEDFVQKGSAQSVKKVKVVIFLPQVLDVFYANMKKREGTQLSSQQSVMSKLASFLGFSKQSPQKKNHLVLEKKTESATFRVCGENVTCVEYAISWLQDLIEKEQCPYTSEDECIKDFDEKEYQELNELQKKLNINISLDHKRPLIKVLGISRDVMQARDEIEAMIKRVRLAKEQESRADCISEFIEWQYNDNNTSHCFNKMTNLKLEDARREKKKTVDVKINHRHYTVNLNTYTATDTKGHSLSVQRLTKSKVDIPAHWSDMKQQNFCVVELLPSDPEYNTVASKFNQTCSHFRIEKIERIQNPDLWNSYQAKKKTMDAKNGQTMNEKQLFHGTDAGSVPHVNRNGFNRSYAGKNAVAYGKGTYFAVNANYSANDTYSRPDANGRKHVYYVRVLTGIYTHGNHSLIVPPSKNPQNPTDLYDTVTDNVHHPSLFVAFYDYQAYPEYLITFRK

Which DC50 does the source give for `O=C1CCC(Nc2ccc(N3CCN(CCN4CCC(SCc5nc6cc(OCC7CC7)cc(F)c6c(=O)[nH]5)CC4)CC3)cc2)C(=O)N1` (stereo not drawn) [Example 42, 3-((4-(4-(2-(4-(((7-(cyclopropylmethoxy)-5-fluoro-4-oxo-3,4-dihydroquinazolin-2-yl)methyl)thio)piperidin-1-yl)ethyl)piperazin-1-yl)phenyl)amino)piperidine-2,6-dione] here?
Its DC50 is under 30 nM.

Same assay, conditions: Assay B, 37° C. for 2 or 24 hours, luminescence, read-out: DC50

Which DC50 does the source give for `O=C1CCC(Nc2ccc(N3CCN(CCN4CCC(SCc5nc6cc(OCC7CCOCC7)cc(F)c6c(=O)[nH]5)CC4)CC3)cc2)C(=O)N1` (stereo not drawn) [Example 43, 3-((4-(4-(2-(4-(((5-fluoro-4-oxo-7-((tetrahydro-2H-pyran-4-yl)methoxy)-3,4-dihydroquinazolin-2-yl)methyl)thio)piperidin-1-yl)ethyl)piperazin-1-yl)phenyl)amino)piperidine-2,6-dione] here?
The DC50 was under 30 nM.

`O=C1CCC(Nc2ccc(N3CCN(CCN4CCC(OCc5nc6cc(OCC7CCOCC7)cc(F)c6c(=O)[nH]5)CC4)CC3)c(F)c2)C(=O)N1` (stereo not drawn) [Example 44, 3-((3-fluoro-4-(4-(2-(4-((5-fluoro-4-oxo-7-((tetrahydro-2H-pyran-4-yl)methoxy)-3,4-dihydroquinazolin-2-yl)methoxy)piperidin-1-yl)ethyl)piperazin-1-yl)phenyl)amino)piperidine-2,6-dione] was tested. Which DC50 did it give?
The DC50 was under 30 nM.

With `O=C1CCC(Nc2ccc(N3CCN(CCN4CCC(OCc5nc6cc(OCC7CC7)cc(F)c6c(=O)[nH]5)CC4)CC3)c(F)c2)C(=O)N1` (stereo not drawn) [Example 45, 3-((4-(4-(2-(4-((7-(cyclopropylmethoxy)-5-fluoro-4-oxo-3,4-dihydroquinazolin-2-yl)methoxy)piperidin-1-yl)ethyl)piperazin-1-yl)-3-fluorophenyl)amino)piperidine-2,6-dione] as the molecule, how does the DC50 read?
The DC50 was under 30 nM.

`O=C1CCC(Nc2ccc(N3CCN(CCN4CCC(SCc5nc6cc(OCC7CCOCC7)cc(F)c6c(=O)[nH]5)CC4)CC3)c(F)c2)C(=O)N1` (stereo not drawn) [Example 46, 3-((3-fluoro-4-(4-(2-(4-(((5-fluoro-4-oxo-7-((tetrahydro-2H-pyran-4-yl)methoxy)-3,4-dihydroquinazolin-2-yl)methyl)thio)piperidin-1-yl)ethyl)piperazin-1-yl)phenyl)amino)piperidine-2,6-dione] was tested. Which DC50 did it give?
Its DC50 is under 30 nM.

Which DC50 does the source give for `O=C1CCC(Nc2ccc(N3CCN(CCN4CCC(SCc5nc6cc(OCC7CC7)cc(F)c6c(=O)[nH]5)CC4)CC3)c(F)c2)C(=O)N1` (stereo not drawn) [Example 47, 3-((4-(4-(2-(4-(((7-(cyclopropylmethoxy)-5-fluoro-4-oxo-3,4-dihydroquinazolin-2-yl)methyl)thio)piperidin-1-yl)ethyl)piperazin-1-yl)-3-fluorophenyl)amino)piperidine-2,6-dione] here?
Its DC50 is under 30 nM.

With `O=C1CCC(Nc2ccc(N3CCC(N4CC(N5CCC(SCc6nc7cc(OCC8CC8)cc(F)c7c(=O)[nH]6)CC5)C4)CC3)c(F)c2)C(=O)N1` (stereo not drawn) [Example 48, 3-((4-(4-(3-(4-(((7-(cyclopropylmethoxy)-5-fluoro-4-oxo-3,4-dihydroquinazolin-2-yl)methyl)thio)piperidin-1-yl)azetidin-1-yl)piperidin-1-yl)-3-fluorophenyl)amino)piperidine-2,6-dione] as the molecule, how does the DC50 read?
The DC50 was under 30 nM.

Target: T2, catalytic domain of human PARP14 (residues 1611 to 1801) with NanoLuc tag (Homo sapiens, UniProt Q460N5)
T2 construct: expressed in transfected cells; host or cells: HEK-293T cells (ATCC), plasmid pRTX240 in pcDNA3.1(-)
T2 sequence (Q460N5 1611-1801): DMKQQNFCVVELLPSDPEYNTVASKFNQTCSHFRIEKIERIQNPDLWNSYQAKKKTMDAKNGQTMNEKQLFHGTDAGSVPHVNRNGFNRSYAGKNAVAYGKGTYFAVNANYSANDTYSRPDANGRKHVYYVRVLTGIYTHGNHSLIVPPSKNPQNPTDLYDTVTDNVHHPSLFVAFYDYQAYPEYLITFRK
Assay: NanoLuc assay for the degradation of PARP14
Assay type: cell-based
Settings: Assay A; NanoLuc-PARP14 overexpressed in HEK-293T cells; 2 hours at 37 degrees; luminescence
Method: The catalytic domain of human PARP14 (residues 1611 to 1801, GenBank Accession No. NM_017554) was inserted into the pcDNA3.1(−) vector. The insert also contained a NanoLuc tag on the N terminus of the PARP14 protein.
Degradation of PARP14 protein was assessed using measurement of the NanoLuc tag as proxy for the PARP14 protein. PARP14 with NanoLuc tag was overexpressed in […] cells (ATCC) using the plasmid described in Table 1. Plasmid DNA was diluted in empty vector DNA then added to 1.163 mL of phenol red free OptiMEM (Thermo Fisher). Plasmid DNA concentrations used in each assay described in Table 1. The plasmid DNA was mixed with 78.5 μL of Fugene HD (Promega) and allowed to incubate 5 minutes.
Next, 1.125 mL were added to 10 million 293T cells in DMEM (Thermo Fisher) supplemented with 10% FBS (VWR) and 1× Glutamax (Gibco). The transfection was incubated for 24 hrs at 37 degrees in an incubator supplemented with 5% CO2. The cells were then trypsinized and brought up in phenol red free OptiMEM media. Transfected HEK-293T cells were diluted to […] and then added to assay plate (Corning 3574) using a Multidrop (Thermo Fisher) to add 40 μL per well of the 384 well plate, resulting in 5,000 cells per well. 40 nL of a dose response curve diluted in DMSO of each test compound was added to the cell plate using a Mosquito (TTP Labtech) and the plate was incubated at 37 degrees for 2 hours. Assay plate was brought to room temperature then 20 μL per well of NanoGlo (Promega) was added to the plate. Luminescence was measured on an Envision (Perkin Elmer).
as §1, §2, §3
DC50 data for the Example compounds is provided below in Table 2 (“+” is <0.1 μM; “++” is ≥0.1 μM and <1 μM; and “+++” is ≥1 μM).

Which DC50 does the source give for `CC(=O)N1CCC(COc2cc(F)c3c(=O)[nH]c(CSC4CCN(CC#Cc5ccc6c(c5)C(=O)N(C5CCC(=O)NC5=O)C6=O)CC4)nc3c2)CC1` (stereo not drawn) [Example 34, 5-(3-(4-(((7-((1-acetylpiperidin-4-yl)methoxy)-5-fluoro-4-oxo-3,4-dihydroquinazolin-2-yl)methyl)thio)piperidin-1-yl)prop-1-yn-1-yl)-2-(2,6-dioxopiperidin-3-yl)isoindoline-1,3-dione] here?
The DC50 was under 100 nM.

For `CC(=O)N1CCC(COc2cc(F)c3c(=O)[nH]c(CSC4CCN(CC#Cc5cccc6c5n(C)c(=O)n6C5CCC(=O)NC5=O)CC4)nc3c2)CC1` (stereo not drawn) [Example 35, 3-(4-(3-(4-(((7-((1-acetylpiperidin-4-yl)methoxy)-5-fluoro-4-oxo-3,4-dihydroquinazolin-2-yl)methyl)thio)piperidin-1-yl)prop-1-yn-1-yl)-3-methyl-2-oxo-2,3-dihydro-1H-benzo[d]imidazol-1-yl)piperidine-2,6-dione], which DC50 is on record?
Its DC50 is under 100 nM.

Which DC50 does the source give for `CC(=O)N1CCC(COc2cc(F)c3c(=O)[nH]c(CSC4CCN(CC#Cc5ccc6c(c5)n(C)c(=O)n6C5CCC(=O)NC5=O)CC4)nc3c2)CC1` (stereo not drawn) [Example 36, 3-(5-(3-(4-(((7-((1-acetylpiperidin-4-yl)methoxy)-5-fluoro-4-oxo-3,4-dihydroquinazolin-2-yl)methyl)thio)piperidin-1-yl)prop-1-yn-1-yl)-3-methyl-2-oxo-2,3-dihydro-1H-benzo[d]imidazol-1-yl)piperidine-2,6-dione] here?
The DC50 was under 100 nM.

With `CC(=O)N1CCC(COc2cc(F)c3c(=O)[nH]c(CSC4CCN(CC#Cc5ccc(N6CCC(=O)NC6=O)cc5)CC4)nc3c2)CC1` [Example 37, 1-(4-(3-(4-(((7-((1-acetylpiperidin-4-yl)methoxy)-5-fluoro-4-oxo-3,4-dihydroquinazolin-2-yl)methyl)thio)piperidin-1-yl)prop-1-yn-1-yl)phenyl)dihydropyrimidine-2,4(1H,3H)-dione] as the molecule, how does the DC50 read?
The DC50 was under 100 nM.

How did the DC50 turn out when `CC(=O)N1CCC(COc2cc(F)c3c(=O)[nH]c(CSC4CCN(CC#Cc5cccc(N6CCC(=O)NC6=O)c5)CC4)nc3c2)CC1` [Example 38, 1-(3-(3-(4-(((7-((1-acetylpiperidin-4-yl)methoxy)-5-fluoro-4-oxo-3,4-dihydroquinazolin-2-yl)methyl)thio)piperidin-1-yl)prop-1-yn-1-yl)phenyl)dihydropyrimidine-2,4(1H,3H)-dione] was run?
The DC50 was under 100 nM.

Which DC50 does the source give for `CC(=O)N1CCC(COc2cc(F)c3c(=O)[nH]c(CSC4CCN(CC5CCN(c6cccc7c6C(=O)N(C6CCC(=O)NC6=O)C7=O)CC5)CC4)nc3c2)CC1` (stereo not drawn) [Example 39, 4-(4-((4-(((7-((1-acetylpiperidin-4-yl)methoxy)-5-fluoro-4-oxo-3,4-dihydroquinazolin-2-yl)methyl)thio)piperidin-1-yl)methyl)piperidin-1-yl)-2-(2,6-dioxopiperidin-3-yl)isoindoline-1,3-dione] here?
Its DC50 is under 100 nM.

For `O=C1CCC(N2C(=O)c3ccc(N4CCC(CN5CCC(SCc6nc7cc(OCC8CC8)cc(F)c7c(=O)[nH]6)CC5)CC4)cc3C2=O)C(=O)N1` (stereo not drawn) [Example 40, 5-(4-((4-(((7-(cyclopropylmethoxy)-5-fluoro-4-oxo-3,4-dihydroquinazolin-2-yl)methyl)thio)piperidin-1-yl)methyl)piperidin-1-yl)-2-(2,6-dioxopiperidin-3-yl)isoindoline-1,3-dione], which DC50 is on record?
The DC50 was under 100 nM.

With `CC(=O)N1CCC(COc2cc(F)c3c(=O)[nH]c(CSC4CCN(CC5CN(c6cccc7c6CN(C6CCC(=O)NC6=O)C7=O)C5)CC4)nc3c2)CC1` (stereo not drawn) [Example 41, 3-(4-(3-((4-(((7-((1-acetylpiperidin-4-yl)methoxy)-5-fluoro-4-oxo-3,4-dihydroquinazolin-2-yl)methyl)thio)piperidin-1-yl)methyl)azetidin-1-yl)-1-oxoisoindolin-2-yl)piperidine-2,6-dione] as the molecule, how does the DC50 read?
Its DC50 is under 100 nM.
